Test results as given in US20230416329A1, “A PEPTIDE WITH DISULFIDE BONDS AND INHIBITORY ACTIVITY AGAINST SERINE PROTEASES, DERIVED HYBRID PEPTIDES THEREOF, AND USES THEREOF” (INSTITUTE OF MATERIA MEDICA , CHINESE ACADEMY OF MEDICAL …, priority 2020, published 2023).
pIC50, pKi: −log10 of the molar value. Bridge positions count the residues as written; N and C are the ends. Square brackets hold non-standard residues; d marks the D form. Peptide text beside a SMILES is read from it. Hyp = O=C(O)[C@@H]1C[C@@H](O)CN1

Biological target: porcine pancreatic elastase (Sus scrofa, UniProt P00772)
Assay: Elastase inhibitory activity of peptides (AAApNA hydrolysis; IC50, Ki, residual activity)
Assay type: biochemical
Details: for Residual activity of elastase / pIC50: elastase 0.5 μM, AAApNA 1 mM
Method: The inhibition constants of various synthetic active peptide inhibitors (molecular scaffolds) against seine proteases were measured. The substrates N-succinyl-Ala-Ala-Pro-Phe-p-nitroaniline (AAPFpNA), Nα—Benzoyl-L-arginine-4-nitroaniline hydrochloride (BApNA) and N-succinyl-[…] (AAApNA) are used in competitive binding reaction to determine the inhibitory activities against α-chymotrypsin, bovine trypsin, and porcine pancreatic elastase, respectively. Experiments for α-chymotrypsin and bovine trypsin inhibition were measured in 20 mM CaCl2, 50 mM Tris-HCl buffer (pH 7.8), and that for porcine elastase inhibition was measured in 50 mM Tris-HCl buffer (pH 8.0). The concentration of the peptide was measured using optical density (OD) at 280 nm. The Michaelis constant (Km) of the enzyme hydrolysis substrate is calculated from the initial rate of substrate hydrolysis at 405 nm. The absorbance value of the substrate was measured at 405 nm after complete hydrolysis. All data were processed using nonlinear regression.
• (1) Added a total 198 μL of reaction buffer (20 mM CaCl2, 50 mM Tris-HCl (pH 8.0)) into the 96 well plate, followed by preheating at 37° C. for 15 min. Then added 2 μL of different concentrations of substrates (pNA, dissolved in DMSO), and mixed by centrifugation at 500 rpm for 1 min. Finally, the plate was incubated at 37° C. for 30 min, and the absorbance value at 405 nm was measured. In the 200 μL of reaction system, the final concentrations of pNA were 0, 0.025, 0.05, 0.075, 0.1, 0.125, 0.15, 0.175, and 0.2 mM, respectively. Make three repetitions for each concentration and plot the OD405 m value with pNA concentration to obtain the standard curve. • (2) Added a total 190 μL of reaction buffer (20 mM CaCl2, 50 mM Tris-HCl (pH 8.0)) and 8 μL of 4.375 μM elastase into the 96 well plate, followed by preheating at 37° C. for 5 min. Then added 2 μL of different concentrations of substrates (AAApNA, dissolved in DMSO), and mixed by centrifugation at 500 rpm for 1 min. Finally, the plate was incubated at 37° C. for 30 min, and the absorbance value at 405 nm was measured. In the 200 μL of reaction system, the final concentrations of AAApNA were 0, 0.125, 0.166, 0.2, 0.25, 0.33, 0.6, 0.75, and 1.25 mM, respectively. Make three repetitions for each concentration and plot the OD405 nm value with time to obtain the corresponding curve. Divide the slope of the curve by the slope of the standard curve and the enzyme concentration to obtain the initial velocity V0 (mM/(min*mM protein). Plot the initial velocity V0 with the concentration of substrate AAApNA using Prism software, and the Michaelis constant Km value of elastase hydrolyzing AAApNA was obtained.
• (1) Added a total 190 μL of different concentrations of peptides (ECs) against elastase and reaction buffer (20 mM CaCl2, 50 mM Tris-HCl buffer (pH 8.0)) into the pre-cold 96 well plate, followed by preheating at 37° C. for 5 min and centrifugated at 500 rpm for 1 min and allowed to stand for 4 minutes. Then added 8 μL of 12.5 μM elastase and incubated at 37° C. for 10 min and centrifugated at 500 rpm for 1 min and allowed to stand for 9 minutes. Finally, added 2 μL of 100 mM AAApNA, and mixed by centrifugation at 500 rpm for 1 min. The plate was incubated at 37° C. for 60 min, and the absorbance value at 405 nm was measured. Three repetitions were made, and only reaction buffer and substrate were added in the blank control as the minimum absorption value (Min OD405 nm); Only reaction buffer, enzyme and substrate were added in the negative control as the maximum absorption value (Max OD405 nm). • (2) In the 200 μL of reaction system, the final concentrations of elastase and AAApNA were 0.5 μM and 1 mM, respectively. • (3) Data statistics
Residual activity of enzyme (%)=(1−(Max OD405 nm−Sample OD405 nm)/(Max OD405 nm−Min OD405 nm))*100 […]

porcine pancreatic elastase, sequence (P00772 27-266): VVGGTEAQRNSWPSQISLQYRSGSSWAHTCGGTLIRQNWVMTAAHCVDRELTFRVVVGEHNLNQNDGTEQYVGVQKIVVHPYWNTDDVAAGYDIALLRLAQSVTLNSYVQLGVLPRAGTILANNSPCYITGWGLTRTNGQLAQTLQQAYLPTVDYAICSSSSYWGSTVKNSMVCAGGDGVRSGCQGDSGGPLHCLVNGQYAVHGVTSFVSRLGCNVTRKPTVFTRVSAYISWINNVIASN

For `CC[C@H](C)[C@H](N)C(=O)N[C@H]1CSSC[C@@H](C(=O)N[C@@H](CCC(N)=O)C(=O)O)NC(=O)[C@H]([C@@H](C)CC)NC(=O)[C@@H]2CCCN2C(=O)[C@@H]2CCCN2C(=O)[C@H]([C@@H](C)CC)NC(=O)[C@H](CO)NC(=O)[C@H](C)NC(=O)[C@H]([C@@H](C)O)NC1=O` [EC23] (H-ICTASIPPICQ-OH; disulfide 2-10; C-terminus assumed), the “Residual activity of elastase” value (peptide 0.001 μM) was 103.0 ± 2.2%, the “Residual activity of elastase” value (peptide 0.01 μM) was 97.8 ± 4.8% and the “Residual activity of elastase” value (peptide 0.1 μM) was 76.8 ± 3.1%. The “Residual activity of elastase” value (peptide 0.2 μM) was 56.4 ± 2.9%, the “Residual activity of elastase” value (peptide 0.4 μM) was 40.8 ± 2.0% and the “Residual activity of elastase” value (peptide 0.6 μM) was 23.7 ± 0.2%. For the same compound, the “Residual activity of elastase” value (peptide 1 μM) was 15.1 ± 0.9%, the “Residual activity of elastase” value (peptide 10 μM) was 1.5 ± 0.3% and the “Residual activity of elastase” value (peptide 100 μM) was −0.2 ± 0.1%. The “Residual activity of elastase” value (peptide 1000 μM) was −0.2 ± 0.1% and the pKi (read-out: Ki against elastase) was 7.15.
`CC[C@H](C)[C@@H]1NC(=O)[C@@H]2CCCN2C(=O)[C@@H]2CCCN2C(=O)[C@H]([C@@H](C)CC)NC(=O)[C@H](CO)NC(=O)[C@H](CC(C)C)NC(=O)[C@H]([C@@H](C)O)NC(=O)[C@H](C)NC(=O)[C@H](CC(C)C)NC(=O)CNC(=O)[C@@H](N)CSSC[C@@H](C(=O)N[C@@H](CCC(N)=O)C(=O)O)NC1=O` [EC7] (H-CGLATLSIPPICQ-OH; disulfide 1-12; N-terminus and C-terminus assumed) was tested, and the “inhibitory activity against elastase (in words)” value was “weaker inhibitory activity”.
`CC[C@H](C)[C@@H]1NC(=O)[C@H](CO)NC(=O)[C@H](C)NC(=O)[C@H]([C@@H](C)O)NC(=O)CNC(=O)[C@H](CC(C)C)NC(=O)CNC(=O)[C@@H](N)CSSC[C@@H](C(=O)N[C@@H](Cc2ccc(O)cc2)C(=O)O)NC(=O)[C@H](CCC(N)=O)NC(=O)[C@@H]2CCCN2C(=O)[C@@H]2CCCN2C1=O` [EC4] (H-CGLGTASIPPQCY-OH; disulfide 1-12) was tested, and the pIC50 was < 4.30.
`CC[C@H](C)[C@@H]1NC(=O)[C@H](CO)NC(=O)[C@H](C)NC(=O)[C@H]([C@@H](C)O)NC(=O)[C@H](CCC(=O)O)NC(=O)[C@H](CCCNC(=N)N)NC(=O)CNC(=O)[C@@H](N)CSSC[C@@H](C(=O)O)NC(=O)[C@H](CCCCN)NC(=O)[C@H](CCC(N)=O)NC(=O)[C@@H]2CCCN2C(=O)[C@@H]2CCCN2C1=O` [EC10] (H-CGRETASIPPQKC-OH; disulfide 1-13; N-terminus and C-terminus assumed) was tested, and the pIC50 was < 4.30.
For `CC[C@H](C)[C@@H]1NC(=O)[C@@H]2C[C@@H](O)CN2C(=O)[C@@H](N)CSSC[C@@H](C(=O)N[C@@H](CCC(N)=O)C(=O)O)NC(=O)[C@H]([C@@H](C)CC)NC(=O)[C@@H]2CCCN2C(=O)[C@@H]2CCCN2C(=O)[C@H]([C@@H](C)CC)NC(=O)[C@H](CO)NC(=O)[C@H](C)NC(=O)[C@H]([C@@H](C)O)NC(=O)[C@H](C)NC1=O` [EC46] (H-C[Hyp]IATASIPPICQ-OH; disulfide 1-12), the pIC50 was < 4.30.
With `CC[C@H](C)[C@@H]1NC(=O)CNC(=O)[C@@H](N)CSSC[C@@H](C(=O)N[C@@H](CCC(N)=O)C(=O)O)NC(=O)[C@H]([C@@H](C)CC)NC(=O)[C@@H]2CCCN2C(=O)[C@@H]2CCCN2C(=O)[C@H]([C@@H](C)CC)NC(=O)[C@H](CO)NC(=O)[C@H](C)NC(=O)[C@H]([C@@H](C)O)NC(=O)[C@H](CCCCN)NC1=O` [EC42] (H-CGIKTASIPPICQ-OH; disulfide 1-12) the pIC50 was < 4.30.
`CC[C@H](C)[C@@H]1NC(=O)[C@@H]2CCCN2C(=O)[C@@H]2CCCN2C(=O)[C@H]([C@@H](C)CC)NC(=O)[C@H](CO)NC(=O)[C@H](CC(C)C)NC(=O)[C@H]([C@@H](C)O)NC(=O)[C@H](C)NC(=O)[C@H](CC(C)C)NC(=O)CNC(=O)CNC(=O)[C@@H](N)CSSC[C@@H](C(=O)N[C@@H](CCC(N)=O)C(=O)O)NC1=O` [EC17] (H-CGGLATLSIPPICQ-OH; disulfide 1-13) was tested, and the pIC50 was < 4.30.
